Drawing on publication doi:10.1101/2023.03.27.534333v1 (biorxiv, 2023), this text covers Kd and IC50 for two molecules.

Molecules are shown by their SMILES.

As usually defined, the Kd is the equilibrium constant for the complex coming apart. Read a low Kd as tighter binding. Usually IC50 stands for the concentration needed to halve the response being measured. Higher therefore signals weaker potency in that assay.

Test [1] concerns the target T1, METTL16 MTD (residues 1-291) (Homo sapiens, UniProt Q86W50).
T1 sequence (Q86W50 1-291): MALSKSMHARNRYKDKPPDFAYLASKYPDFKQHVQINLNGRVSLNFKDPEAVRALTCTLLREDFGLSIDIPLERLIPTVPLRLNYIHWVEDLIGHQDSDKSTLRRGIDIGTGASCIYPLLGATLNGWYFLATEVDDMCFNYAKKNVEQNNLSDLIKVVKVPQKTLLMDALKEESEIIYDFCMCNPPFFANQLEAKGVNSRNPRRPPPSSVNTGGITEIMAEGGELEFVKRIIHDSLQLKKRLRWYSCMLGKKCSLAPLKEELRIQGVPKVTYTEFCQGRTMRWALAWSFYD
Nature of the test: microscale thermophoresis, His-tag RED-tris-NTA labelled protein. The class given is binding. For orientation: MST reads how a fluorescent partner responds to local heating, with and without ligand.

Test [2] has as its target T2, full-length METTL16 (Homo sapiens, UniProt Q86W50).
T2 sequence (Q86W50 1-562): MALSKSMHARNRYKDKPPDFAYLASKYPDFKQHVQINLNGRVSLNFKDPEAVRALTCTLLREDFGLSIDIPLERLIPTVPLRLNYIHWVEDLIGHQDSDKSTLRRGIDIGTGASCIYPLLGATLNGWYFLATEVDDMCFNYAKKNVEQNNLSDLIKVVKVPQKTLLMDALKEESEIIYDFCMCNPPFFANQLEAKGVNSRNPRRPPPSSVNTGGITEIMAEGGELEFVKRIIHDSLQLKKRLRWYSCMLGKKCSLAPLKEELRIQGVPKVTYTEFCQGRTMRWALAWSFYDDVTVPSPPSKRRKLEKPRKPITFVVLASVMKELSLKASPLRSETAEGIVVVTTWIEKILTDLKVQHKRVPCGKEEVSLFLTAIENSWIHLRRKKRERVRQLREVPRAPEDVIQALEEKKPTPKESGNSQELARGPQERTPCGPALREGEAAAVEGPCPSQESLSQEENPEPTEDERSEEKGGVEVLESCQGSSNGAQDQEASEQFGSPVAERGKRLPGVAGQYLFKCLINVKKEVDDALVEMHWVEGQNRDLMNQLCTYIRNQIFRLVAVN
Nature of the test: m6A antibody-based ELISA. The class given is biochemical. A general note: ELISA stands for enzyme-linked immunosorbent assay.

The molecule `C/C(=N\N=C(/N)S)c1ccccc1` [compound 1, [(E)-(1-phenylethylidene)amino]thiourea] registered a Kd in test [1] of 3310 ± 610 nM. The molecule further showed an IC50 in test [2] of 25.8 ± 17.2 nM.
In test [1], `C/C(=N\NC(N)=S)c1ccc(F)cc1` [compound 2, [(E)-[1-(4-fluorophenyl)ethylidene]amino]thiourea] returned a dissociation constant (Kd) of 2840 ± 940 nM. Half-maximal inhibition in test [2] (IC50) was put at 60.9 ± 2.75 nM.
